# Results: BindingDB's records for doi:10.1021/acs.jmedchem.1c00926 (Biogen, 2022)
# pIC50: −log10 of the molar value.
# Assay: Inhibition of CD69 in human whole blood preincubated for 30 mins followed by anti-human IgD stimulation and measured after 18 to 22 hrs by flow cytometry
row,SMILES,pIC50
1,Cc1c(NC(=O)c2cc3c(s2)CCCC3)cccc1-c1cn(C)c(=O)c(Nc2ccc(C3CN(C)CC(=O)N3C)cc2)n1 (centres undefined),5.92
2,CC(C)OC1CN(C(=O)N[C@@H]2CCCCc3cc(-c4ccnc(Nc5cnn(C)c5)n4)ccc32)C1,6.40
3,Cn1cc(Nc2nccc(-c3ccc4c(c3)CCCCC4NC(=O)N3CC[C@@H](C(C)(C)C)C3)n2)cn1 (some centres undefined),7.40
4,Cn1cc(Nc2nccc(-c3ccc4c(c3)CCCCC4NC(=O)c3cnc(C(C)(C)C)nc3)n2)cn1 (centres undefined),< 5.00
5,Cn1cc(Nc2nccc(-c3ccc4c(c3)CCCC[C@H]4NC(=O)c3nc(C(C)(C)C)no3)n2)cn1,7.23
6,Cn1cc(Nc2nccc(-c3ccc4c(c3)CCCC[C@H]4NC(=O)c3cn(C(C)(C)C)nn3)n2)cn1,6.98
7,Cn1cc(Nc2nccc(-c3ccc4c(c3)CCNC[C@H]4NC(=O)c3cn(C(C)(C)C)nn3)n2)cn1,6.40
8,Cn1cc(Nc2nccc(-c3ccc4c(c3)CNCC[C@H]4NC(=O)c3cn(C(C)(C)C)nn3)n2)cn1,5.80
9,CN1CCc2cc(-c3ccnc(Nc4cnn(C)c4)n3)ccc2[C@H](NC(=O)c2cn(C(C)(C)C)nn2)C1,6.15
10,"Cn1cc(Nc2nccc(-c3ccc4c(c3)CCCCC4NC(=O)c3cn(C(C)(C)C)nn3)n2)cn1 (centres undefined) [1-(tert-butyl)-N-(2-(2-((1-methyl-1H-pyrazol-4-yl)amino)pyrimidin-4-yl)-6,7,8,9-tetrahydro-5H-benzo[7]annulen-5-yl)-1H-1,2,3-triazole-4-carboxamide]",6.07
11,"Cn1cc(Nc2nccc(-c3ccc4c(c3)CCCCC4NC(=O)c3nc(C(C)(C)C)no3)n2)cn1 (centres undefined) [3-(tert-butyl)-N-(2-(2-((1-methyl-1H-pyrazol-4-yl)amino)pyrimidin-4-yl)-6,7,8,9-tetrahydro-5H-benzo[7]annulen-5-yl)-1,2,4-oxadiazole-5-carboxamide ]",6.66
12,"Cn1cc(Nc2nccc(-c3ccc4c(c3)CCCCC4NC(=O)c3nnc(C(C)(C)C)o3)n2)cn1 (centres undefined) [5-(tert-butyl)-N-(2-(2-((1-methyl-1H-pyrazol-4-yl)amino)pyrimidin-4-yl)-6,7,8,9-tetrahydro-5H-benzo[7]annulen-5-yl)-1,3,4-oxadiazole-2-carboxamide]",6.41
13,"COCCN1CC[C@@H](NC(=O)c2cn(C(C)(C)C)nn2)c2ccc(-c3ccnc(Nc4cnn(C)c4)n3)cc2C1 [(R)-1-(tert-butyl)-N-(2-(2-methoxyethyl)-8-(2-((1-methyl-1H-pyrazol-4-yl)amino)pyrimidin-4-yl)-2,3,4,5-tetrahydro-1H-benzo[c]azepin-5-yl)-1H-1,2,3-triazole-4-carboxamide ]",6.10
14,"Cn1cc(Nc2nccc(-c3ccc4c(c3)CCCC[C@H]4NC(=O)c3nnc(C(C)(C)C)o3)n2)cn1 [(R)-5-(tert-butyl)-N-(2-(2-((1-methyl-1H-pyrazol-4-yl)amino)pyrimidin-4-yl)-6,7,8,9-tetrahydro-5H-benzo[7]annulen-5-yl)-1,3,4-oxadiazole-2-carboxamide ]",6.48
